Results reported in paper PMC11022729 (Advanced Science, 2024).

Tests used:
human Slack = molecular target: T1, human Slack (Homo sapiens, UniProt Q5JUK3); test: Whole-cell patch-clamp recordings in HEK-Slack cells; format: cell-based; conditions: 25 µM
T1 construct: host or cells: HEK293
T1 sequence (Q5JUK3 1-1230): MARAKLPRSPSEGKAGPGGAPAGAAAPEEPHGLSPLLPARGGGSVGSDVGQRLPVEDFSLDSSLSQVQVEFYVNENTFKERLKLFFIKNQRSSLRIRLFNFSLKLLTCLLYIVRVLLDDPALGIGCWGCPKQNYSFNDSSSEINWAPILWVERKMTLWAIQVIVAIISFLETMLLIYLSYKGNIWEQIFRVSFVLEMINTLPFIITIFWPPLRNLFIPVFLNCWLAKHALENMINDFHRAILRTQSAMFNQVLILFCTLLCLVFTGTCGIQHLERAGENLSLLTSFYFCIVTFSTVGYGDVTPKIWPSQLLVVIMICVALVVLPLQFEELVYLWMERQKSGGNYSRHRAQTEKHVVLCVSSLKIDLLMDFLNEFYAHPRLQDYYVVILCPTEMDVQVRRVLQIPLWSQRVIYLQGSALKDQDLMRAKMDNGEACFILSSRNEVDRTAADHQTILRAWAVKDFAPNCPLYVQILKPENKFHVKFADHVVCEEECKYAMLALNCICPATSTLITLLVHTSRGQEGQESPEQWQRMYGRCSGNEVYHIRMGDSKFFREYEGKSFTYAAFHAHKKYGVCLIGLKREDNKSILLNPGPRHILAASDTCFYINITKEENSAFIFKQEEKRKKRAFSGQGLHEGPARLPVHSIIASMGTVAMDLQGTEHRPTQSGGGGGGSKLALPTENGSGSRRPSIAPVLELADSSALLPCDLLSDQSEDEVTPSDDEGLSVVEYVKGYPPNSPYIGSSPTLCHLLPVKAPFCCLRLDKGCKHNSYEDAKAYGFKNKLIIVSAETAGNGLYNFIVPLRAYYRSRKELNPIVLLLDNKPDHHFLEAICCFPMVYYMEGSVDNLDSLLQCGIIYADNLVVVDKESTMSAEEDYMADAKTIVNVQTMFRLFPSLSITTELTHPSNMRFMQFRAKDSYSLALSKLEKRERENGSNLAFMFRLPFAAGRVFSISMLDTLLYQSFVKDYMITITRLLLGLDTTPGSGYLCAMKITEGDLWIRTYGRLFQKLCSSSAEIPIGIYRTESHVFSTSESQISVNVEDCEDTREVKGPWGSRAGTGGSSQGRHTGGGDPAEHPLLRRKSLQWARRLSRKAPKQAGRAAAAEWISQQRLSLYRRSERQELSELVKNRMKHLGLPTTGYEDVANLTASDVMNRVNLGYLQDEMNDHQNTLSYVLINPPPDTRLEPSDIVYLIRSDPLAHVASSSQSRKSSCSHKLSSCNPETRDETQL
Protocol: Next, we verified Slack activation by the new compounds using whole‐cell patch‐clamp recordings in HEK‐Slack cells. […] At a holding potential of −70 mV, a series of 500 ms‐long test pulses ranging from −120 to +120 mV in intervals of 20 mV were applied.^[ [16] ^]
HEK‐Slack cells were plated onto poly‐D‐lysine‐coated (100 µg mL^−1, Sigma–Aldrich) coverslips 1 day before experiments and cultured in DMEM containing 10% FBS and 1% penicillin/streptomycin in 5% CO2 at 37 °C. Whole‐cell voltage‐clamp recordings were acquired using an EPC 9 amplifier combined with Patchmaster software (HEKA Electronics, Lambrecht/Pfalz, Germany). Currents were sampled at 20 kHz and filtered at 5 kHz. Data analysis was performed using the Fitmaster software (HEKA Electronics). Membrane potential was held at −70 mV and outward K^+ current (IK) was evoked by depolarizing steps (500 ms duration) ranging from −120 to +120 mV in increments of 20 mV. The pipette solution contained 140 mM KCl, 2 mM MgCl2, 5 mM EGTA, and 10 mM HEPES and was adjusted to pH 7.4 with KOH. The extracellular solution contained 140 mM NaCl, 5 mM KCl, 2 mM CaCl2, 2 mM MgCl2, and 10 mM HEPES and was adjusted to pH 7.4 with NaOH. […] The fold‐increase values in the patch‐clamp experiments were determined by calculating […]. […]

mice = test: SLIGRL-induced itch behavior; format: in vivo, mouse; conditions: 10 mg kg−1 i.p.
From the text: Chloroquine‐induced scratching in mice is driven by MrgprA3 activation in the NP2 population of sensory neurons.^[ [10], [29] ^] To further explore the antipruritic efficacy of compound 6 in histamine‐independent itch, we assessed the behavioral response after s.c. injection of the peptide Ser‐Leu‐Ile‐Gly‐Arg‐Leu (SLIGRL) that evokes scratching by activation of MrgprC11,^[ [30] ^] which is expressed in the NP2 and NP3 population.^[ [10] ^] […] Moreover, compound 6 ameliorated histamine‐independent itch evoked by s.c. injection of β‐alanine that activates MrgprD^[ [31] ^] in the NP1 population of sensory neurons^[ [10] ^] (Figure 3F). In contrast, scratching induced by subcutaneous histamine was not affected by compound 6 (Figure 3G). The lack of an effect on histamine‐evoked scratching was supported by the low affinity of compound 6 for histamine H1 receptors, which was determined using a [^3H]‐pyrilamine competition binding assay in vitro (Table S3, Supporting Information). […] We also investigated the efficacy of compound 6 after peroral (p.o.) delivery.
Three to four days before the day of the experiment, the fur on the dorsolateral aspect of the neck was shaved under brief isoflurane anesthesia. […] Number of scratching bouts directed toward the nape of the neck was assessed over 30 min by videotaping. […]

[1] = system: voltage-dependent Na+ channels in IB4-binding sensory neurons; test: Tetrodotoxin-resistant Na+ currents in DRG neurons (patch-clamp); format: cell-based, mouse; conditions: 50 µM

## O=C(O)COCCN1CCN(C2=Nc3ccccc3Oc3ccc(Cl)cc32)CC1 [Compound 6]
Human Slack; 10 mM pipette Na+
  increase in current densities: more pronounced
Human Slack; Na+-free pipette solution
  current densities compared to baseline: increased the current densities compared to baseline
mice
  SLIGRL-induced scratching behavior: significantly inhibited
[1]
  tetrodotoxin-resistant Na+ currents: did not affect
